Test results taken from ChEMBL document CHEMBL4706756, “Combination Therapy of RNA Interference and Small Molecules for Treating Hepatitis B Virus Infection” (ACS Med Chem Lett, 2021).
Calls of active or inactive are those of the source. The rule behind the calls is not given here.

Key:
Hepatitis B virus [1] = test: Antiviral activity against HBV infected in CHB patient assessed as reduction in viral DNA level at 250 mg, po administered daily from 1 to 84 days in presence of RNAi component and NA; format: functional, organism-based; settings: time 1-84 day
Hepatitis B virus [2] = test: Antiviral activity against HBV infected in CHB patient assessed as reduction in HBsAg level at 250 mg, po administered daily from 1 to 84 days in presence of RNAi component and NA relative to control; format: functional; parameters: scale not given: the % may be the effect or the level left; settings: time 1-84 day
Hepatitis B virus [3] = test: Antiviral activity against HBV infected in CHB patient assessed as reduction in viral RNA level at 250 mg, po administered daily from 1 to 84 days in presence of RNAi component and NA; format: functional, organism-based; settings: time 1-84 day
[4] = Toxicity in HBV infected CHB patient at 250 mg, po administered daily from 1 to 84 days in presence of RNAi component and NA; format: organism-based; settings: human, in vivo, time 1-84 day
Hepatitis B virus [5] = test: Antiviral activity against HBV infected in CHB patient assessed as reduction in HBeAg level at 250 mg, po administered daily from 1 to 84 days in presence of RNAi component and NA; format: functional, organism-based; settings: time 1-84 day
Hepatitis B virus [6] = test: Antiviral activity against HBV infected in CHB patient assessed as reduction in HBcrAg level at 250 mg, po administered daily from 1 to 84 days in presence of RNAi component and NA; format: functional, organism-based; settings: time 1-84 day
Hepatitis B virus [7] = test: Antiviral activity against HBV infected in HBeAg-positive CHB patient assessed as reduction in HBsAg level at 250 mg, po administered daily from 1 to 84 days in presence of RNAi component and NA; format: functional, organism-based; settings: time 1-84 day
Hepatitis B virus [8] = test: Antiviral activity against HBV infected in HBeAg-negative CHB patient assessed as reduction in HBsAg level at 250 mg, po administered daily from 1 to 84 days in presence of RNAi component and NA; format: functional, organism-based; settings: time 1-84 day

C[C@H](NS(=O)(=O)c1cc(C(=O)Nc2ccc(F)c(C#N)c2)n(C)c1)C(F)(F)F [BERSACAPAVIR]
Activity (Hepatitis B virus [1]): Active | Activity (Hepatitis B virus [2]): 90% | Activity (Hepatitis B virus [3]): Active | Activity [4]: Non-Toxic | Activity (Hepatitis B virus [5]): Active | Activity (Hepatitis B virus [6]): Active | Activity (Hepatitis B virus [7]): Active | Activity (Hepatitis B virus [8]): Active
